system: macrophages derived from mouse bone marrow; test: LPS-induced secretion of inflammatory factors from macrophages, ELISA of supernatant; assay type: cell-based; settings: 30 umol/L 2 hours before LPS 500 ng/ml for 24 hours; FIG. 2
Procedure: macrophage grouping (in vitro):
Cultivate macrophages derived from mouse bone marrow in vitro.
The experiment was divided into 8 groups, namely: • Control group (untreated mouse bone marrow-derived macrophages), • LPS group (500 ng/ml LPS stimulated macrophages for 24 hours), • LPS+TJ-2 group (2 hours before LPS stimulation, administer 30 umol/L TJ-2 drug stimulation), • LPS+TJ-5 group (2 hours before LPS stimulation, administer 30 umol/L TJ-5 drug stimulation), • LPS+TJ-8 group (2 hours before LPS stimulation, administer 30 umol/L TJ-8 drug stimulation), • LPS+TJ-9 group (2 hours before LPS stimulation, administer 30 umol/L TJ-9 drug stimulation), • LPS+TJ-11 group (2 hours before LPS stimulation, administer 30 umol/L TJ-11 drug stimulation), • and LPS+TJ-12 group (2 hours before LPS stimulation, administer 30 umol/L TJ-12 drug stimulation).
After 24 hours of LPS stimulation, the cell culture supernatant was removed and ELISA was performed to detect the concentration of various inflammatory factors in the supernatant.

**Q.** What does the source list for `Cc1ccc(N2CCN(CC(=O)Nc3nc(-c4ccccc4)cs3)CC2)cc1` [INNA1602, 2-(4-(4-methylphenyl)piperazine-1-yl) -N-(4-phenylthiazole-2-yl) acetamide]?
**A.** inhibitory effect on inflammatory factors compared among the compounds: have the same inhibitory effect on inflammatory factors; secretion of various inflammatory factors in macrophages (IL-1β, Il-6, TNF-α, IL-18, IL-17): can inhibit the secretion of various inflammatory factors in macrophages

**Q.** Which results are given for `O=C(CN1CCN(Cc2ccccc2)CC1)Nc1nc(-c2ccccc2)cs1` [INNA1608, 2-(4-benzylpiperazine-1-yl)-N-(4-phenylthiazole-2-yl) acetamide]?
**A.** inhibitory effect on inflammatory factors compared among the compounds: have the same inhibitory effect on inflammatory factors; secretion of various inflammatory factors in macrophages (IL-1β, Il-6, TNF-α, IL-18, IL-17): can inhibit the secretion of various inflammatory factors in macrophages

**Q.** What does the source list for `COc1cccc(-c2csc(NC(=O)CCN3CCN(Cc4ccccc4)CC3)n2)c1` [INNA1609, 3-(4-benzylpiperazine-1-yl)-N-(4-(3-methoxyphenyl)thiazole-2-yl) propionamide]?
**A.** inhibitory effect on inflammatory factors compared among the compounds: have the same inhibitory effect on inflammatory factors; secretion of various inflammatory factors in macrophages (IL-1β, Il-6, TNF-α, IL-18, IL-17): can inhibit the secretion of various inflammatory factors in macrophages

**Q.** Which “inhibitory effect on inflammatory factors compared among the compounds” value does the source give for `Cc1cccc(-c2csc(NC(=O)CCN3CCN(c4cccc(C)c4)CC3)n2)c1` [INNA1611] here?
**A.** have the same inhibitory effect on inflammatory factors

**Q.** What about the “secretion of various inflammatory factors in macrophages (IL-1β, Il-6, TNF-α, IL-18, IL-17)” value of the same molecule?
**A.** can inhibit the secretion of various inflammatory factors in macrophages

**Q.** With `Cc1cccc(-c2csc(NC(=O)CN3CCN(Cc4ccccc4)CC3)n2)c1` [INNA1612, 2-(4-benzyl-base)piperazine-1-N-(4-(3-methylphenyl)thiazole-2-base) acetamide] as the molecule, how does the “inhibitory effect on inflammatory factors compared among the compounds” value read?
**A.** have the same inhibitory effect on inflammatory factors

**Q.** And the “secretion of various inflammatory factors in macrophages (IL-1β, Il-6, TNF-α, IL-18, IL-17)” value?
**A.** can inhibit the secretion of various inflammatory factors in macrophages

Source: patent US20240180898A1, “USE OF AMINOTHIAZOLE DERIVATIVE IN TREATMENT OF IMMUNE INFLAMMATION” (INNAMUNE PHARMACEUTICAL CO. LTD., priority 2021, published 2024)
